Test results from patent publication US7419776B1, “Method of reducing pathogen load” (priority 1999, dated 2008).

Tested on: Candida albicans
Experiment: Fungal load: patient with severe candidiasis (present-tense example)
Type: in vivo, human
Details: two weeks, before YG Product
Protocol: The following present-tense examples are intended to illustrate and summarize the teachings of the preceding examples that describe actual clinical data with over 100 AIDS and ARC patients.
The candidiasis clears. A dose is administered by one of the following routes: intradermally, subcutaneously, orally, transmucosally, sublingually, or transdermally.

## OC(Cn1cncn1)(Cn1cncn1)c1ccc(F)cc1F [Fluconazole]
  effect of antifungal treatment alone on severe candidiasis: without effect
